Measurements as given in PMC8032624, “Prediction of dose-dependent in vivo acetylcholinesterase inhibition by profenofos in rats and humans using physiologically based kinetic (PBK) modeling-facilitated reverse dosimetry” (Archives of Toxicology, 2021).

Columns and labels:
in vitro = in vitro ADME, human; conditions: for Vmax / Km: conversion of profenofos to BCP; for Km: pH 7.4
Description: Incubations of profenofos with rat and human liver microsomes, liver cytosol and plasma were performed to quantify in vitro rates of BCP formation. Conditions were optimized to be linear for metabolite formation with regard to incubation time and microsomal, cytosolic and plasma protein concentration (data not shown). The final incubations were carried out in 100 mM Tris HCl (pH 7.4, 37 °C) containing (final concentrations) 5 mM MgCl2, 2 mM CaCl2 [to stimulate PON1 activity (Carr et al. [2015])], 2 mM NADPH (cofactor to also include CYP-mediated metabolism), enzyme preparation (final concentration 2 mg/ml for human liver microsomes and cytosol and 4.4 mg/ml for human plasma; 0.5 mg/ml for rat microsomes and cytosol and 1.65 mg/ml for rat plasma) and profenofos (at final concentrations ranging from 1 to 100 μM, added from 100 times concentrated stock solutions in DMSO). Control incubations were performed in the absence of microsomes, cytosol or plasma. After 2 min pre-incubation, the reaction was initiated by adding the substrate and mixtures were incubated for 2 min in a 37 °C water bath. The total volume of the incubation mixtures was 200 μl. The reaction was terminated by the addition of 50 μl ice cold ACN and samples were kept on ice. The mixture was centrifuged at 14,000g for 20 min at 4 °C and the supernatant was analyzed using UPLC-UV.
All samples from incubations were analyzed using a Waters Acquity UPLC H class system that consisted of a quaternary solvent manager, a sample manager, and a photodiode array (PDA) detector, equipped with a Water Acquity UPLC® BEH C18 column (1.7 μm, 2.1 × 50 mm) and Waters Xbridge UPLC® BEH C18 pre-column (2.5 μM, 2.1 × 5 mm). The temperature of the column was kept at 40 °C and the auto sampler at 10 °C during the UPLC analysis. The mobile phases used for the analysis consisted of (A) 0.1% TFA in nanopure water and (B) 100% ACN. A gradient elution at a flow rate of 0.6 ml/min was applied for the analysis with the initial condition of 100% A:0% B (v/v), changing in a linear way to 0% A:100% B from 0 to 6 min, which was maintained for 30 s, and then changed back to the initial conditions in 30 s, which were maintained for 1 min. The injection volume for each sample was 3.5 μl.
Under these conditions, the retention times of profenofos and BCP were 4.76 and 3.37 min, respectively. The amounts of profenofos and BCP were quantified by integrating the peak areas at 237 nm using calibration curves that were prepared using commercially available standards.
Kinetic parameters including the apparent maximum velocity (Vmax) and the apparent Michaelis–Menten constant (Km) for BCP formation were obtained by fitting the data for the substrate concentration-dependent rate of conversion (expressed in nmol/min/mg protein) using GraphPad Prism 5, version 5.04 (San Diego, California, USA) to the standard Michaelis–Menten equation: V=Vmax∗S/(Km+S) in which the S represents the concentration of substrate, expressed in μM, V and Vmax the velocity and the maximum velocity of the reaction, respectively, expressed in nmol/min/mg protein, and Km the apparent Michaelis–Menten constant, expressed in μM. The kinetic parameter values for conversion of profenofos to BCP in the liver microsomes, liver cytosol and plasma were determined. To determine the catalytic efficiency, Vmax was divided by the Km.

brain AChE = assay: In vivo brain AChE inhibition in rats, single exposure (JMPR); conditions: rat
Text: To evaluate the performance of the PBK modeling-facilitated reverse dosimetry approach to predict in vivo AChE inhibition, the predicted dose–response curve for rat AChE inhibition upon exposure to profenofos was compared with available in vivo data on AChE inhibition in rats (JMPR [2007]). Furthermore, the predicted dose–response data were used for BMD modeling, using EFSA PROAST version 69.0 (https://shiny-efsa.openanalytics.eu/app/bmd) using the model averaging approach to allow evaluation of the prediction by comparison of BMDL10 values obtained from the predicted dose–response data to points of departure derived by regulatory bodies (EPA [2016]; JMPR [2007], EFSA [2019]). To that end, the obtained BMDL10 values were compared with a reported BMDL10 value from a rat study on profenofos-induced RBC AChE inhibition, which was recently used to obtain an ARfD by the US EPA (EPA [2016]), and a reported NOAEL value on profenofos-induced rat brain acetylcholinesterase inhibition, which has been used to obtain an ARfD by JMPR ([2007]).

AChE = assay: PBK modeling-facilitated reverse dosimetry and BMD modelling of predicted AChE inhibition in rats; set-up: species or system rat
Text: In the present study, it was assumed that in vivo dose-dependent AChE inhibition (in blood) depends on the maximum concentration (Cmax) of profenofos reached in the blood. For adequate PBK modeling-facilitated reverse dosimetry, the active (unbound) concentration of a test chemical in the in vitro test system should be linked to the in vivo freely available chemical at the target site. This is important since it is assumed that it is the fraction unbound that causes the effect (AChE inhibition). In the in vitro incubations, a very low concentration of BSA (0.1 mg/mL) is present. Heilmair et al. ([2008]) reported that with such low BSA concentrations, the free concentration of chlorpyrifos oxon is not affected. Furthermore, Rosenfeld and Sultatos ([2006]) found no evidence of binding of paraoxon by BSA even at a higher concentration (1 mg/ml) during incubations. Based on these observations, no significant effect on the free fraction of profenofos in the in vitro AChE inhibition studies is expected, which corroborated with estimations on profenofos binding in the in vitro incubations with help of the online simcyp tool (https://www.certara.com/software/pbpk-modeling-and-simulation/).
By calculating with the PBK model, the external dose required to reach (as unbound Cmax) the concentrations applied in the in vitro test, each in vitro concentration was translated into an in vivo dose. In this way, the concentration–response curves for rat and human AChE inhibition were converted into in vivo dose–response curves for profenofos-induced AChE inhibition in rats and humans, respectively.
To evaluate the performance of the PBK modeling-facilitated reverse dosimetry approach to predict in vivo AChE inhibition, the predicted dose–response curve for rat AChE inhibition upon exposure to profenofos was compared with available in vivo data on AChE inhibition in rats (JMPR [2007]). […]

brain cholinesterase = conditions: based on NOAEL in a dog study, brain cholinesterase inhibition; ref EFSA [2019]; cited from earlier work

Compound: CCCSP(=O)(OCC)Oc1ccc(Br)cc1Cl (centres unmarked) [profenofos, O-(4-bromo-2-chlorophenyl) O-ethyl S-propyl phosphorothioate]
- Vmax (in vitro; human liver cytosol): 1.1 nmol/min/mg cytosolic protein
- Vmax (in vitro; human liver microsomes): 1.2 nmol/min/mg microsomal protein
- Vmax (in vitro; human plasma): 0.99 nmol/min/mg plasma protein
- Catalytic efficiency, fold lower for human than rat liver cytosol (in vitro; human vs rat liver cytosol): 3.8 fold
- Km, fold higher for human than rat liver cytosol (in vitro; human vs rat liver cytosol): 4.1 fold
- Vmax, fold higher for human than rat liver cytosol (in vitro; human vs rat liver cytosol): 1.1 fold
- Catalytic efficiency, fold lower in human than rat liver microsomes (in vitro; human vs rat liver microsomes): 6.5 fold
- Km, fold lower in human than rat liver microsomes (in vitro; human vs rat liver microsomes): 1.2 fold
- Vmax, fold lower in human than rat liver microsomes (in vitro; human vs rat liver microsomes): 7.7 fold
- Catalytic efficiency, fold lower for human than rat plasma (in vitro; human vs rat plasma): 32 fold
- Km, fold higher for human than rat plasma (in vitro; human vs rat plasma): 44 fold
- Vmax, fold higher for human than rat plasma (in vitro; human vs rat plasma): 1.5 fold
- Km (in vitro; human liver cytosol): 1.4 µM
- Km (in vitro; human liver microsomes): 6.9 µM
- Km (in vitro; human plasma): 158 µM
- JMPR NOAEL relative to US EPA BMDL10 (brain AChE): 50 fold
- JMPR NOAEL relative to BMDL10 from predicted rat dose-response data (AChE): 200 fold
- Predicted rat BMDL10 relative to EFSA ARfD (AChE): ~ 100 fold
- US EPA BMDL10 relative to BMDL10 from predicted rat dose-response data (AChE): 4 times
- ARfD (brain cholinesterase): 0.005 mg/kg bw
